Reference: patent US9738655B2, “Tetrahydroisoquinolines containing substituted azoles as factor XIa inhibitors” (BRISTOL-MYERS SQUIBB COMPANY, priority 2013, dated 2017)
Where a name gives a salt, the structure may show the parent alone. Read-outs that look alike come from different tables or passages of the source.

Key:
[1] = target: purified human plasma kallikrein (Homo sapiens (Human), UniProt P03952); assay: Plasma kallikrein enzyme inhibition assay (chromogenic substrate S-2302); format: biochemical
[2] = target: purified human Factor XIa (Homo sapiens (Human), UniProt P03951); assay: Factor XIa enzyme inhibition assay (chromogenic substrate S-2366)
Experimental: The effectiveness of compounds of the present invention as inhibitors of the coagulation Factors XIa, VIIa, IXa, Xa, XIIa, plasma kallikrein or thrombin, can be determined using a relevant purified serine protease, respectively, and an appropriate synthetic substrate. The rate of hydrolysis of the chromogenic or fluorogenic substrate by the relevant serine protease was measured both in the absence and presence of compounds of the present invention. […] A decrease in the rate of absorbance or fluorescence change in the presence of inhibitor is indicative of enzyme inhibition. […] The results of this assay are expressed as the inhibitory constant, Ki.
Values of Ki were determined by allowing the protease to react with the substrate in the presence of the inhibitor.

[3] = measured at 25° C. (no asterisk)
[4] = read-out: Factor XIa Ki, measured at 25° C.

Chain of purified human Factor XIa (P03951 388-625): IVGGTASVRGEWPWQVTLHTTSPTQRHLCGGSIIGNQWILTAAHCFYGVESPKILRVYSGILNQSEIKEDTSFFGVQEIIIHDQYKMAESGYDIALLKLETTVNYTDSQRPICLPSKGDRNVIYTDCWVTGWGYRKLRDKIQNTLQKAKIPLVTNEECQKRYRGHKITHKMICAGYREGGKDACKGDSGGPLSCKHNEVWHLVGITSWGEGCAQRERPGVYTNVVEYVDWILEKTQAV
Chain of purified human Factor XIa (P03951 19-387 partner): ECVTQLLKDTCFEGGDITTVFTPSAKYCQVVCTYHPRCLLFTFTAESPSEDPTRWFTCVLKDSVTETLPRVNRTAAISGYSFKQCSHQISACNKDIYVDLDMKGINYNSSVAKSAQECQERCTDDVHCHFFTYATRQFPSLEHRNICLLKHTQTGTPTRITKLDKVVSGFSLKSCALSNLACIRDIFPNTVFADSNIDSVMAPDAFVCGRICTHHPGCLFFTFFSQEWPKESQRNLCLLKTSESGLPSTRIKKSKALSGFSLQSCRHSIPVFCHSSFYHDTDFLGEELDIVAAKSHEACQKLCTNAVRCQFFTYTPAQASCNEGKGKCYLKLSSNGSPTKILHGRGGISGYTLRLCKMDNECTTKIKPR
Chain of purified human plasma kallikrein (P03952 391-638): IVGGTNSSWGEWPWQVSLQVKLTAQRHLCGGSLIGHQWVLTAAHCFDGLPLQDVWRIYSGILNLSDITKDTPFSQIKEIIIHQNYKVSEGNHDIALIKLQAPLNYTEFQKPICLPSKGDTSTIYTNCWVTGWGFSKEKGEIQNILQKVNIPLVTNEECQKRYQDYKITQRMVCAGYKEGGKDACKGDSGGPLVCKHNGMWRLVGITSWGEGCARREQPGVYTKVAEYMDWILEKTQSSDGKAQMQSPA
Chain of purified human plasma kallikrein (P03952 20-390 partner): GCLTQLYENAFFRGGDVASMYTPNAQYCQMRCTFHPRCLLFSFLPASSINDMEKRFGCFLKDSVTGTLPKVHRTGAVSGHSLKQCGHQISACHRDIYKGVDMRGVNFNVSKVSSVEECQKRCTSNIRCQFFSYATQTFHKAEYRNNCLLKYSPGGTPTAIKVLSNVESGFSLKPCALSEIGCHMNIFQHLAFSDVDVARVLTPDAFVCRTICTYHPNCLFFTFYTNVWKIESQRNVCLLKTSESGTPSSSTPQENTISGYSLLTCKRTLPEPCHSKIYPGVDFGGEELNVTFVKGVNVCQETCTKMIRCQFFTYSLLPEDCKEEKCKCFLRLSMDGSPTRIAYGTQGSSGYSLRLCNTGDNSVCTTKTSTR

Structure (SMILES): COC1CCN(c2cccc3c2CCN(C(=O)c2cc(-c4c(F)ccc(Cl)c4F)no2)C3C(=O)Nc2ccc(C(=O)O)cc2)CC1 (racemic) [Example 265, 4-(2-(3-(3-chloro-2,6-difluorophenyl)isoxazole-5-carbonyl)-5-(4-methoxypiperidin-1-yl)-1,2,3,4-tetrahydroisoquinoline-1-carboxamido)benzoic acid, TFA salt]
- Ki [1, 3]: 178 nM
- Ki [2]: 13.2 nM

Structure (SMILES): COC1CCN(c2cccc3c2CCN(C(=O)c2cc(-c4cccc(Cl)c4F)no2)C3C(=O)Nc2ccc(C(=O)O)cc2)CC1 (racemic) [Example 268, 4-(2-(3-(3-chloro-2-fluorophenyl)isoxazole-5-carbonyl)-5-(4-methoxypiperidin-1-yl)-1,2,3,4-tetrahydroisoquinoline-1-carboxamido)benzoic acid, TFA salt]
- Ki ([1]; measured at 37° C. (*)): 178 nM
- Ki [2]: 1430 nM

Structure (SMILES): COC1CCN(c2cccc3c2CCN(C(=O)c2cc(-c4cccc(Cl)c4F)ns2)C3C(=O)Nc2ccc(C(=O)O)cc2)CC1 (racemic) [Example 269, 4-(2-(3-(3-chloro-2-fluorophenyl)isothiazole-5-carbonyl)-5-(4-methoxypiperidin-1-yl)-1,2,3,4-tetrahydroisoquinoline-1-carboxamido)benzoic acid, TFA salt]
- Ki [1, 3]: 205 nM
- Ki [2]: 33.5 nM

Structure (SMILES): COC1CCN(c2cccc3c2CCN(C(=O)c2cnc(-c4cccc(Cl)c4F)s2)C3C(=O)Nc2ccc(C(=O)O)cc2)CC1 (racemic) [Example 270, 4-(2-(2-(3-chloro-2-fluorophenyl)thiazole-5-carbonyl)-5-(4-methoxypiperidin-1-yl)-1,2,3,4-tetrahydroisoquinoline-1-carboxamido)benzoic acid, TFA salt]
- Ki [1, 3]: 269 nM
- Ki [2]: 20.4 nM

Structure (SMILES): COC1CCN(c2cccc3c2CCN(C(=O)c2cn(-c4cccc(Cl)c4F)cn2)C3C(=O)Nc2ccc(C(=O)O)cc2)CC1 (racemic) [Example 271, 4-(2-(1-(3-chloro-2-fluorophenyl)-1H-imidazole-4-carbonyl)-5-(4-methoxypiperidin-1-yl)-1,2,3,4-tetrahydroisoquinoline-1-carboxamido)benzoic acid, TFA salt]
- Ki [1, 3]: 7.65 nM
- Ki [2]: < 5 nM

Structure (SMILES): CN1CCN(c2cccc3c2CCN(C(=O)c2cn(-c4cccc(Cl)c4F)nn2)C3C(=O)Nc2ccc(C(=O)O)cc2)CC1=O (racemic) [Example 274, 4-(2-(1-(3-chloro-2-fluorophenyl)-1H-1,2,3-triazole-4-carbonyl)-5-(4-methyl-3-oxopiperazin-1-yl)-1,2,3,4-tetrahydroisoquinoline-1-carboxamido)benzoic acid, TFA salt]
- Ki [1, 3]: 4.87 nM
- Ki [2]: < 5 nM

Structure (SMILES): COc1cccc2c1CCN(C(=O)c1cn(-c3cccc(Cl)c3F)nn1)C2C(=O)Nc1ccc(C(=O)O)cc1 (racemic) [Example 275, 4-(2-(1-(3-chloro-2-fluoroplienyl)-1H-1,2,3-triazole-4-carbonyl)-5-methoxy-1,2,3,4-tetrahydroisoquinoline-1-carboxamido)benzoic acid, TFA salt]
- Ki [1, 3]: 11.8 nM
- Ki [2]: 10.7 nM

Structure (SMILES): CN1CCN(c2cccc3c2CCN(C(=O)c2cn(-c4cccc(Cl)c4F)cn2)C3C(=O)Nc2ccc(C(=O)O)cc2)CC1=O (racemic) [Example 284, 4-(2-(1-(3-chloro-2-fluorophenyl)-1H-imidazole-4-carbonyl)-5-(4-methyl-3-oxopiperazin-1-yl)-1,2,3,4-tetrahydroisoquinoline-1-carboxamido)benzoic acid, TFA salt]
- Ki [1, 3]: 6.25 nM
- Ki [2]: < 5 nM

Structure (SMILES): COC1CCN(c2cccc3c2CCN(C(=O)c2cnn(-c4cccc(Cl)c4F)c2N)C3C(=O)Nc2ccc(C(=O)O)cc2)CC1 (racemic) [Example 309, 4-(2-(5-amino-1-(3-chloro-2-fluorophenyl)-1H-pyrazole-4-carbonyl)-5-(4-methoxypiperidin-1-yl)-1,2,3,4-tetrahydroisoquinoline-1-carboxamido)benzoic acid, 2 TFA salt]
- Ki [1, 3]: 28.8 nM
- Ki [2]: < 5 nM

Structure (SMILES): COC1CCN(c2cccc3c2CCN(C(=O)c2coc(-c4cccc(Cl)c4F)n2)C3C(=O)Nc2ccc(C(=O)O)cc2)CC1 (racemic) [Example 310, 4-(2-(2-(3-chloro-2-fluorophenyl)oxazole-4-carbonyl)-5-(4-methoxypiperidin-1-yl)-1,2,3,4-tetrahydroisoquinoline-1-carboxamido)benzoic acid, TFA salt]
- Ki [1, 3]: 610 nM
- Ki [2]: 82 nM

Structure (SMILES): COC1CCN(c2cccc3c2CCN(C(=O)c2cc(-c4cccc(Cl)c4)n[nH]2)C3C(=O)Nc2ccc(C(=O)O)cc2)CC1 (racemic) [Example 311, 4-(2-(3-(3-chlorophenyl)-1H-pyrazole-5-carbonyl)-5-(4-methoxypiperidin-1-yl)-1,2,3,4-tetrahydroisoquinoline-1-carboxamido)benzoic acid, TFA salt]
- Ki [1, 3]: 787 nM
- Ki [2]: 18.4 nM

Structure (SMILES): COC1CCN(c2cccc3c2CCN(C(=O)c2cn(-c4c(F)ccc(Cl)c4F)cn2)C3C(=O)Nc2ccc(C(=O)O)cc2)CC1 (racemic) [Example 312, 4-(2-(1-(3-chloro-2,6-difluorophenyl)-1H-imidazole-4-carbonyl)-5-(4-methoxypiperidin-1-yl)-1,2,3,4-tetrahydroisoquinoline-1-carboxamido)benzoic acid, TFA salt]
- Ki [1, 3]: 27.3 nM
- Ki [2]: < 5 nM

Structure (SMILES): COC1CCN(c2cccc3c2CCN(C(=O)c2cnn(-c4ccncc4)c2N)C3C(=O)Nc2ccc(C(=O)O)cc2)CC1 (racemic) [Example 313, 4-(2-(5-amino-1-(pyridin-4-yl)-1H-pyrazole-4-carbonyl)-5-(4-methoxypiperidin-1-yl)-1,2,3,4-tetrahydroisoquinoline-1-carboxamido)benzoic acid, TFA salt]
- Ki ([1]; measured at 37° C. (*)): > 6000 nM
- Ki [2]: 4820 nM

Structure (SMILES): CN(C)C1CCN(c2cccc3c2CCN(C(=O)c2cn(-c4cccc(Cl)c4F)nn2)[C@@H]3C(=O)Nc2ccc(C(=O)O)cc2)CC1 (single isomer, unassigned) [Example 49, bis-TFA salt]
- Ki [1, 3]: 1.39 nM
- Ki [2, 4]: < 5 nM

Structure (SMILES): CN(C)C1CCN(c2cccc3c2CCN(C(=O)c2cnn(-c4cccc(Cl)c4F)c2)[C@H]3C(=O)Nc2ccc(C(=O)O)cc2)CC1 (single isomer, unassigned) [Example 51, bis-TFA salt]
- Ki [1, 3]: 340 nM
- Ki [2, 4]: 54.5 nM

Structure (SMILES): CN(C)C1CCN(c2cccc3c2CCN(C(=O)c2cnn(-c4cccc(Cl)c4F)c2)[C@@H]3C(=O)Nc2ccc(C(=O)O)cc2)CC1 (single isomer, unassigned) [Example 52, bis-TFA salt]
- Ki [1, 3]: 1.79 nM
- Ki [2, 4]: < 5 nM

Structure (SMILES): CN(C)C1CCN(c2cccc3c2CCN(C(=O)c2cn(-c4cccc(Cl)c4F)cn2)[C@H]3C(=O)Nc2ccc(C(=O)O)cc2)CC1 (single isomer, unassigned) [Example 54, bis-TFA salt]
- Ki [1, 3]: 50.4 nM
- Ki [2, 4]: 8.83 nM

Structure (SMILES): CN(C)C1CCN(c2cccc3c2CCN(C(=O)c2cn(-c4cccc(Cl)c4F)cn2)[C@@H]3C(=O)Nc2ccc(C(=O)O)cc2)CC1 (single isomer, unassigned) [Example 55, bis-TFA salt]
- Ki [1, 3]: 0.92 nM
- Ki [2, 4]: < 5 nM

Structure (SMILES): CN(C)C(=O)C1CCN(c2cccc3c2CCN(C(=O)c2cn(-c4cccc(Cl)c4F)nn2)[C@H]3C(=O)Nc2ccc(C(=O)O)cc2)CC1 (single isomer, unassigned) [Example 57, TFA salt]
- Ki [1, 3]: 276 nM
- Ki [2, 4]: 33.1 nM

Structure (SMILES): CN(C)C(=O)C1CCN(c2cccc3c2CCN(C(=O)c2cn(-c4cccc(Cl)c4F)nn2)[C@@H]3C(=O)Nc2ccc(C(=O)O)cc2)CC1 (single isomer, unassigned) [Example 58, TFA salt]
- Ki [1, 3]: 3.24 nM
- Ki [2, 4]: < 5 nM

Structure (SMILES): CN(C)C(=O)C1CCN(c2cccc3c2CCN(C(=O)c2cnn(-c4cccc(Cl)c4F)c2)[C@H]3C(=O)Nc2ccc(C(=O)O)cc2)CC1 (single isomer, unassigned) [Example 60, TFA salt]
- Ki [1, 3]: 698 nM
- Ki [2, 4]: 47.8 nM

Structure (SMILES): CN(C)C(=O)C1CCN(c2cccc3c2CCN(C(=O)c2cnn(-c4cccc(Cl)c4F)c2)[C@@H]3C(=O)Nc2ccc(C(=O)O)cc2)CC1 (single isomer, unassigned) [Example 61, TFA salt]
- Ki [1, 3]: 5.89 nM
- Ki [2, 4]: < 5 nM

Structure (SMILES): CN(C)C(=O)C1CCN(c2cccc3c2CCN(C(=O)c2cn(-c4cccc(Cl)c4F)cn2)[C@H]3C(=O)Nc2ccc(C(=O)O)cc2)CC1 (single isomer, unassigned) [Example 62, TFA salt]
- Ki [1, 3]: 399 nM
- Ki [2, 4]: 74.6 nM

Structure (SMILES): CN(C)C(=O)C1CCN(c2cccc3c2CCN(C(=O)c2cn(-c4cccc(Cl)c4F)cn2)[C@@H]3C(=O)Nc2ccc(C(=O)O)cc2)CC1 (single isomer, unassigned) [Example 63, TFA salt]
- Ki [1, 3]: 2.71 nM
- Ki [2, 4]: < 5 nM

Structure (SMILES): O=C(O)c1ccc(NC(=O)C2c3cccc(N4CCC(N5CCCC5)CC4)c3CCN2C(=O)C2CC(c3cccc(Cl)c3)=NO2)cc1 (single isomer, unassigned) [Example 203, 4-(2-(3-(3-chlorophenyl)-4,5-dihydroisoxazole-5-carbonyl)-5-(4-(pyrrolidin-1-yl)piperidin-1-yl)-1,2,3,4-tetrahydroisoquinoline-1-carboxamido)benzoic acid, 2 TFA salt]
- Ki [1, 3]: 1.29 nM
- Ki [2]: < 5 nM

Structure (SMILES): O=C(O)c1ccc(NC(=O)C2c3cccc(N4CCC(N5CCCC5)CC4)c3CCN2C(=O)C2CC(c3cccc(Cl)c3)=NO2)cc1 (single isomer, unassigned) [Example 204, 4-(2-(3-(3-chlorophenyl)-4,5-dihydroisoxazole-5-carbonyl)-5-(4-(pyrrolidin-1-yl)piperidin-1-yl)-1,2,3,4-tetrahydroisoquinoline-1-carboxamido)benzoic acid, 2 TFA salt]
- Ki [1, 3]: 11 nM
- Ki [2, 4]: < 5 nM

Structure (SMILES): O=C(O)c1ccc(NC(=O)[C@@H]2c3cccc(N4CCC(N5CCCC5=O)CC4)c3CCN2C(=O)[C@H]2CC(c3cccc(Cl)c3F)=NO2)cc1 (single isomer, unassigned) [Example 207, TFA salt]
- Ki [1, 3]: 30.9 nM
- Ki [2]: < 5 nM

Structure (SMILES): O=C(O)c1ccc(NC(=O)C2c3cccc(N4CCC(N5CCCC5=O)CC4)c3CCN2C(=O)[C@H]2CC(c3cccc(Cl)c3F)=NO2)cc1 (single isomer, unassigned) [Example 208, TFA salt]
- Ki [1, 3]: 447 nM
- Ki [2, 4]: < 5 nM
